US11452717B2, “Small molecule activators of nicotinamide phosphoribosyltransferase (NAMPT) and uses thereof” (Sanford Burnham Prebys Medical Discovery Institute, priority 2017, dated 2022)

Each molecule was assayed against NAMPT enzyme (Homo sapiens (Human), UniProt P43490) (assay: Enzyme Assay and NMN Detection (NAMPT reaction, fluorescence detection of NMN)). Conditions: Table B-1; NAMPT activation, NMN formation.
NAMPT enzyme, sequence (P43490 whole entry, species assumed): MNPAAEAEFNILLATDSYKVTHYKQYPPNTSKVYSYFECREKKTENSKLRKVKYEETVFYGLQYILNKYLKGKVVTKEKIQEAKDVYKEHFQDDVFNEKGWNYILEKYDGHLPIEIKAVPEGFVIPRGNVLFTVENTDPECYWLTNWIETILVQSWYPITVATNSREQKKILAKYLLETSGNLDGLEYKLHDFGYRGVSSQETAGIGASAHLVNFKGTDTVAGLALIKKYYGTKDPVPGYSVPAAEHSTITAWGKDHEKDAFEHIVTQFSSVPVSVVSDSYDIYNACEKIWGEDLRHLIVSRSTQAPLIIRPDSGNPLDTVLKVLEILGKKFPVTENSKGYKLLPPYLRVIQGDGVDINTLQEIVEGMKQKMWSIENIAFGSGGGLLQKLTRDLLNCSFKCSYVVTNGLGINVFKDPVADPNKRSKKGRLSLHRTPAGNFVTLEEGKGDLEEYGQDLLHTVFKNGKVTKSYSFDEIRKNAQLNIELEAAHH
Format: biochemical
How it was run: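 NMN formed was read at ex380/em460 after acetophenone/KOH derivatization and formic acid addition, using a same-day calibration curve. Final conditions: NAMPT 16 nM, nicotinamide 5 uM, PRPP 6.25 uM, ATP 120 uM, pyrophosphatase 0.04 U/ml, pH 7.5 HEPES buffer with MgCl2 and TCEP, 2 h at room temperature.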
In the case of `O=C(NCc1cn[nH]c1)Nc1ccc(S(=O)(=O)Nc2ccccn2)cc1` [4-[3-(1H-Pyrazol-4-ylmethyl)-ureido]-N-pyridin-2-yl-benzenesulfonamide], the EC50 is reported as 2 to 5 µM.
`CCOC(=O)c1ccc(NC(=O)NCc2cn(Cc3ccc(OC)cc3)nn2)cc1` [Ethyl 4-(3-((1-(4-methoxybenzyl)-1H-1,2,3-triazol-4-yl)methyl)ureido)benzoate] showed an EC50 greater than 20 µM.
In the case of `CCOC(=O)c1ccc(NC(=O)NCc2cn(C)cn2)cc1` [Ethyl 4-(3-((1-methyl-1H-imidazol-4-yl)methyl)ureido)benzoate], the EC50 is reported as greater than 20 µM.
`CCOC(=O)c1ccc(NC(=O)NCc2cncn2C)cc1` [Ethyl 4-(3-((1-methyl-1H-imidazol-5-yl)methyl)ureido)benzoate] was tested, and the EC50 was greater than 20 µM.
Molecule `CCOC(=O)c1ccc(NC(=O)NCc2cnn(C)c2)cc1` [Ethyl 4-(3-((1-methyl-1H-pyrazol-4-yl)methyl)ureido)benzoate] has an EC50 greater than 20 µM.
In the case of `CCOC(=O)c1ccc(NC(=O)NCc2ccnn2C)cc1` [Ethyl 4-(3-((1-methyl-1H-pyrazol-5-yl)methyl)ureido)benzoate], the EC50 is reported as greater than 20 µM.
Molecule `CCOC(=O)c1ccc(NC(=O)NCc2c[nH]nn2)cc1` [Ethyl 4-(3-((1H-1,2,3-triazol-4-yl)methyl)ureido)benzoate] has an EC50 greater than 20 µM.
`CCOC(=O)c1ccc(NC(=O)NCc2c[nH]cn2)cc1` [Ethyl 4-(3-((1H-imidazol-4-yl)methyl)ureido)benzoate] was tested, and the EC50 was greater than 20 µM.
Work on `CCOC(=O)c1ccc(NC(=O)NCc2cnc[nH]2)cc1` [Ethyl 4-(3-((1H-imidazol-5-yl)methyl)ureido)benzoate] yielded an EC50 greater than 20 µM.
For `CCOC(=O)c1ccc(NC(=O)NCc2cc[nH]n2)cc1` [Ethyl 4-(3-((1H-pyrazol-3-yl)methyl)ureido)benzoate], the EC50 was greater than 20 µM.
Molecule `CCOC(=O)c1ccc(NC(=O)NCc2cn[nH]c2)cc1` [Ethyl 4-(3-((1H-pyrazol-4-yl)methyl)ureido)benzoate] has an EC50 of 0.1 to 2 µM.

Same assay, conditions: Table B-2; NAMPT activation, NMN formation
With `O=C(NCc1ccncc1)Nc1ccc(S(=O)(=O)NCc2cccc(OC(F)(F)F)c2)cc1` [4-(3-Pyridin-4-ylmethyl-ureido)-N-(3-trifluoromethoxy-benzyl)-benzenesulfonamide] the EC50 was 0.1 to 2 µM.
With `O=C(NCc1ccncc1)Nc1ccc(S(=O)(=O)NCc2cccc(C(F)(F)F)c2)cc1` [4-(3-Pyridin-4-ylmethyl-ureido)-N-(3-trifluoromethyl-benzyl)-benzenesulfonamide] the EC50 was 0.1 to 2 µM.
`O=C(NCc1ccncc1)Nc1ccc(S(=O)(=O)NCc2ccc(OC(F)(F)F)cc2)cc1` [4-(3-Pyridin-4-ylmethyl-ureido)-N-(4-trifluoromethoxy-benzyl)-benzenesulfonamide] gave an EC50 of 0.1 to 2 µM.
`O=C(NCc1ccncc1)Nc1ccc(S(=O)(=O)NCc2ccc(C(F)(F)F)cc2)cc1` [4-(3-Pyridin-4-ylmethyl-ureido)-N-(4-trifluoromethyl-benzyl)-benzenesulfonamide] showed an EC50 of 0.1 to 2 µM.
Molecule `O=C(NCc1ccncc1)Nc1ccc(S(=O)(=O)NC2CCOC2)cc1` (stereo not shown) [4-(3-Pyridin-4-ylmethyl-ureido)-N-(tetrahydro-furan-3-yl)-benzenesulfonamide] has an EC50 of 0.1 to 2 µM.
For `Cc1cccc(NS(=O)(=O)c2ccc(NC(=O)NCc3ccncc3)cc2)c1` [4-(3-Pyridin-4-ylmethyl-ureido)-N-m-tolyl-benzenesulfonamide], the EC50 was 0.1 to 2 µM.
Work on `Cc1ccccc1NS(=O)(=O)c1ccc(NC(=O)NCc2ccncc2)cc1` [4-(3-Pyridin-4-ylmethyl-ureido)-N-o-tolyl-benzenesulfonamide] yielded an EC50 of 0.1 to 2 µM.
Work on `Cc1ccc(NS(=O)(=O)c2ccc(NC(=O)NCc3ccncc3)cc2)cc1` [4-(3-Pyridin-4-ylmethyl-ureido)-N-p-tolyl-benzenesulfonamide] yielded an EC50 of 0.1 to 2 µM.
Molecule `O=C(NCc1ccncc1)Nc1ccc(S(=O)(=O)Nc2ncccn2)cc1` [4-(3-Pyridin-4-ylmethyl-ureido)-N-pyrimidin-2-yl-benzenesulfonamide] has an EC50 of 5 to 20 µM.
`O=C(NCc1ccncc1)Nc1ccc(S(=O)(=O)NC2CCNC2)cc1` (stereo not shown) [4-(3-Pyridin-4-ylmethyl-ureido)-N-pyrrolidin-3-yl-benzenesulfonamide] showed an EC50 of 5 to 20 µM.
With `O=C(NCc1ccncc1)Nc1ccc(S(=O)(=O)Nc2nccs2)cc1` [4-(3-Pyridin-4-ylmethyl-ureido)-N-thiazol-2-yl-benzenesulfonamide] the EC50 was 0.1 to 2 µM.
Work on `O=C(NCc1ccncc1)Nc1ccc(S(=O)(=O)Nc2ccccc2Cl)cc1` [4-(3-pyridin-4-ylmethyl-ureido)-N-(2-chloro-phenyl)-benzenesulfonamide] yielded an EC50 of 0.1 to 2 µM.
Molecule `O=C(NCc1ccncc1)Nc1ccc(S(=O)(=O)Nc2cccc(Cl)c2)cc1` [4-(3-pyridin-4-ylmethyl-ureido)-N-(3-chloro-phenyl)-benzenesulfonamide] has an EC50 of 0.1 to 2 µM.
Molecule `O=C(NCc1ccncc1)Nc1ccc(S(=O)(=O)Nc2ccc(Cl)cc2)cc1` [4-(3-pyridin-4-ylmethyl-ureido)-N-(4-chloro-phenyl)-benzenesulfonamide] has an EC50 of 0.1 to 2 µM.
`O=C(NCc1ccncc1)Nc1ccc(NS(=O)(=O)c2ccc(Cl)cc2)cc1` [4-Chloro-N-[4-(3-pyridin-4-ylmethyl-ureido)-phenyl]-benzenesulfonamide] gave an EC50 of less than 0.1 µM.
In the case of `COc1ccc(S(=O)(=O)Nc2ccc(NC(=O)NCc3ccncc3)cc2)cc1` [4-Methoxy-N-[4-(3-pyridin-4-ylmethyl-ureido)-phenyl]-benzenesulfonamide], the EC50 is reported as 0.1 to 2 µM.
Molecule `COC(=O)c1ccc(CNS(=O)(=O)c2ccc(NC(=O)NCc3ccncc3)cc2)cc1` [4-{[4-(3-Pyridin-4-ylmethyl-ureido)-benzenesulfonylamino]-methyl}-benzoic acid methyl ester] has an EC50 of 0.1 to 2 µM.
Molecule `CCOC(=O)c1ccccc1NC(=O)NCc1ccncc1` [Ethyl 2-(3-(pyridin-4-ylmethyl)ureido)benzoate] has an EC50 greater than 20 µM.
`CCOC(=O)c1cccc(NC(=O)NCc2ccncc2)c1` [Ethyl 3-(3-(pyridin-4-ylmethyl)ureido)benzoate] was tested, and the EC50 was 5 to 20 µM.
`CCOC(=O)c1ccc(NC(=O)NCc2ccnc(N)c2)cc1` [Ethyl 4-(3-((2-aminopyridin-4-yl)methyl)ureido)benzoate] was tested, and the EC50 was greater than 20 µM.
In the case of `CCOC(=O)c1ccc(NC(=O)NCc2ccnc(Cl)c2)cc1` [Ethyl 4-(3-((2-chloropyridin-4-yl)methyl)ureido)benzoate], the EC50 is reported as greater than 20 µM.
`CCOC(=O)c1ccc(NC(=O)NCc2ccnc(F)c2)cc1` [Ethyl 4-(3-((2-fluoropyridin-4-yl)methyl)ureido)benzoate] showed an EC50 greater than 20 µM.

Same assay, conditions: Table B-3; NAMPT activation, NMN formation
`NC(=O)c1ccc(NC(=O)NCc2ccncc2)cn1` [5-(3-(pyridin-4-ylmethyl)ureido)picolinamide] showed an EC50 of 2 to 5 µM.
`CCOC(=O)c1ccc(NC(=O)NCC2CCNc3ccccc32)cc1` (stereo not shown) [Ethyl 4-(3-((1,2,3,4-tetrahydroquinolin-4-yl)methyl)ureido)benzoate] was tested, and the EC50 was greater than 20 µM.

Same assay, conditions: Table B-4; NAMPT activation, NMN formation
Work on `O=C(NCc1cn[nH]c1)Nc1ccc(NS(=O)(=O)Cc2ccccc2Cl)cc1` [C-(2-Chloro-phenyl)-N-{4-[3-(1H-pyrazol-4-ylmethyl)-ureido]-phenyl}-methanesulfonamide] yielded an EC50 of less than 0.1 µM.
Work on `O=C(NCc1cn[nH]c1)Nc1ccc(NS(=O)(=O)Cc2ccc(Cl)c(Cl)c2)cc1` [C-(3,4-Dichloro-phenyl)-N-{4-[3-(1H-pyrazol-4-ylmethyl)-ureido]-phenyl}-methanesulfonamide] yielded an EC50 of less than 0.1 µM.
`O=C(NCc1cn[nH]c1)Nc1ccc(NS(=O)(=O)Cc2cccc(Cl)c2)cc1` [C-(3-Chloro-phenyl)-N-{4-[3-(1H-pyrazol-4-ylmethyl)-ureido]-phenyl}-methanesulfonamide] was tested, and the EC50 was less than 0.1 µM.
`O=C(NCc1cn[nH]c1)Nc1ccc(NS(=O)(=O)Cc2ccc(Cl)cc2)cc1` [C-(4-Chloro-phenyl)-N-{4-[3-(1H-pyrazol-4-ylmethyl)-ureido]-phenyl}-methanesulfonamide] gave an EC50 of less than 0.1 µM.

Same assay, conditions: Table B-6; NAMPT activation, NMN formation
`O=C(NCc1ccncc1)Nc1ccc(NS(=O)(=O)Cc2ccccc2Br)cc1` [C-(2-Bromo-phenyl)-N-[4-(3-pyridin-4-ylmethyl-ureido)-phenyl]-methanesulfonamide] showed an EC50 of less than 0.1 µM.
`O=C(NCc1ccncc1)Nc1ccc(NS(=O)(=O)Cc2ccccc2F)cc1` [C-(2-Fluoro-phenyl)-N-[4-(3-pyridin-4-ylmethyl-ureido)-phenyl]-methanesulfonamide] was tested, and the EC50 was less than 0.1 µM.
`COc1ccccc1CS(=O)(=O)Nc1ccc(NC(=O)NCc2ccncc2)cc1` [C-(2-Methoxy-phenyl)-N-[4-(3-pyridin-4-ylmethyl-ureido)-phenyl]-methanesulfonamide] was tested, and the EC50 was 0.1 to 2 µM.
In the case of `O=C(NCc1ccncc1)Nc1ccc(NS(=O)(=O)Cc2cccc(F)c2)cc1` [C-(3-Fluoro-phenyl)-N-[4-(3-pyridin-4-ylmethyl-ureido)-phenyl]-methanesulfonamide], the EC50 is reported as less than 0.1 µM.
Molecule `COc1cccc(CS(=O)(=O)Nc2ccc(NC(=O)NCc3ccncc3)cc2)c1` [C-(3-Methoxy-phenyl)-N-[4-(3-pyridin-4-ylmethyl-ureido)-phenyl]-methanesulfonamide] has an EC50 of less than 0.1 µM.
For `O=C(NCc1ccncc1)Nc1ccc(NS(=O)(=O)Cc2ccc(Br)cc2)cc1` [C-(4-Bromo-phenyl)-N-[4-(3-pyridin-4-ylmethyl-ureido)-phenyl]-methanesulfonamide], the EC50 was less than 0.1 µM.
`N#Cc1ccc(CS(=O)(=O)Nc2ccc(NC(=O)NCc3ccncc3)cc2)cc1` [C-(4-Cyano-phenyl)-N-[4-(3-pyridin-4-ylmethyl-ureido)-phenyl]-methanesulfonamide] showed an EC50 of 0.1 to 2 µM.
Work on `O=C(NCc1ccncc1)Nc1ccc(NS(=O)(=O)Cc2ccc(C3CC3)cc2)cc1` [C-(4-Cyclopropyl-phenyl)-N-[4-(3-pyridin-4-ylmethyl-ureido)-phenyl]-methanesulfonamide] yielded an EC50 of less than 0.1 µM.
Molecule `COc1ccc(CS(=O)(=O)Nc2ccc(NC(=O)NCc3ccncc3)cc2)cc1` [C-(4-Methoxy-phenyl)-N-[4-(3-pyridin-4-ylmethyl-ureido)-phenyl]-methanesulfonamide] has an EC50 of less than 0.1 µM.
`O=C(NCc1ccncc1)Nc1ccc(NS(=O)(=O)Cc2ccc(-c3ccccc3)cc2)cc1` [C-Biphenyl-4-yl-N-[4-(3-pyridin-4-ylmethyl-ureido)-phenyl]-methanesulfonamide] gave an EC50 of less than 0.1 µM.
